Data set [1] can be described thus: Hemolytic activity in human RBC assessed as hemolysis. Type of data set: toxicity, cell-based, Erythrocyte. As to conditions: red blood cells.
Data set [2] has as its system Staphylococcus aureus. Briefly: Antibacterial activity against Staphylococcus aureus ATCC 25923 assessed as reduction in bacterial growth incubated for 24 hrs by serial dilution method. Format: functional.
The test system of data set [3] is Escherichia coli. Description: Antibacterial activity against Escherichia coli ATCC 25922 assessed as bacterial growth inhibition measured after 48 hrs by resazurin assay. Format: functional. For orientation: Alamar Blue is a resazurin reagent that responds to reducing activity.
Data set [4] deals with Pseudomonas aeruginosa. Description: Antibacterial activity against Pseudomonas aeruginosa PAO1 assessed as bacterial growth inhibition. Format: functional.
Data set [5] relates to Zymomonas mobilis. Briefly: Antibacterial activity against Zymomonas mobilis ATCC 10988 assessed as bacterial growth inhibition. Format: functional.
The subject of data set [6] is Escherichia coli. Description: Antibacterial activity against Escherichia coli DH5a assessed as bacterial growth inhibition. Type of data set: functional.
Data set [7] is described as follows: Hemolytic activity in human erythrocytes measured after 1 hrs by microplate reader analysis. Type of data set: toxicity, cell-based, Erythrocyte.
In data set [8] the test system is Mycolicibacterium smegmatis. Description: Antibacterial activity against Mycobacterium smegmatis mc2 155 assessed as bacterial growth inhibition. Type of data set: functional.
The test system of data set [9] is Bacillus subtilis. Description: Antibacterial activity against Bacillus subtilis assessed as bacterial growth inhibition. Format: functional.
Data set [10] deals with Staphylococcus aureus. Description: Antibacterial activity against Staphylococcus aureus. Type of data set: functional.
Data set [11] has as its system Escherichia coli. Description: Antibacterial activity against Escherichia coli. Format: functional.

Results on 10 compounds are retold here after ChEMBL document CHEMBL5608163, “Structure modification of anoplin for fighting resistant bacteria” (Eur J Med Chem, 2024).

Values after ≈ are worked out from the molar mass of the structure shown. Peptide text beside a SMILES is read from it. * marks the point of attachment. Undecanoyl = CCCCCCCCCCC(=O)*; Nonanoyl = CCCCCCCCC(=O)*

As for `CC[C@H](C)[C@H](NC(=O)[C@H](CCCNC(=N)N)NC(=O)[C@H](CCCCN)NC(=O)[C@H](CC(C)C)NC(=O)[C@H](CC(C)C)NC(=O)CN)C(=O)N[C@@H](CCCCN)C(=O)N[C@@H](CC(C)C)C(=O)N[C@@H](CC(C)C)C(=O)N[C@@H](CC(C)C)C(N)=O` (H-GLLKRIKLLL-NH2), the HC50 – broadly, the concentration that lyses half of the red blood cells – in [1] was 102 µM. Further, the figures for the MIC in data set [2] and in data set [3] were 6 µM (≈ 6.99 µg/mL) and 11.2 µM (≈ 13.1 µg/mL), respectively.

On to `CCCCCCCCC(=O)NCC(=O)N[C@@H](CC(C)C)C(=O)N[C@@H](CCCCN)C(=O)N[C@@H](CCCCN)C(=O)N[C@H](C(=O)N[C@H](C(=O)N[C@@H](CCCCN)C(=O)N[C@@H](CCCCN)C(=O)N[C@@H](CC(C)C)C(=O)N[C@@H](CC(C)C)C(N)=O)[C@@H](C)CC)[C@@H](C)CC` (Nonanoyl-GLKKIIKKLL-NH2), for which the MIC (commonly the least concentration at which growth counts as inhibited) in data set [4] worked out at 11.5 µM (≈ 14.8 µg/mL); in [5] it was 11.5 µM (≈ 14.8 µg/mL); in data set [6], 76.6 µM (≈ 99 µg/mL); in data set [8] it was 2.3 µM (≈ 2.97 µg/mL); in data set [9], 3.83 µM (≈ 4.95 µg/mL). Further, the HC50 at 1 h in data set [7] is 61.9 µM.

Consider `CC[C@H](C)[C@H](NC(=O)[C@H](CCCNC(=N)N)NC(=O)[C@H](CCCCN)NC(=O)[C@H](CC(C)C)NC(=O)[C@H](CC(C)C)NC(=O)CN)C(=O)N[C@@H](CCCCN)C(=O)N[C@@H](Cc1ccccc1)C(=O)N[C@@H](CC(C)C)C(=O)N[C@@H](CC(C)C)C(N)=O` (H-GLLKRIKFLL-NH2), for which the 50% haemolytic concentration (HC50) in data set [1] was determined as 326 µM. For the same compound, the MIC in data set [2] and in data set [3] was 6.7 µM (≈ 8.04 µg/mL) throughout.

As to `CC[C@H](C)[C@H](NC(=O)[C@H](CCCNC(=N)N)NC(=O)[C@H](CCCCN)NC(=O)[C@H](CC(C)C)NC(=O)[C@H](CC(C)C)NC(=O)CN)C(=O)N[C@@H](CCCCN)C(=O)N[C@@H](Cc1c[nH]c2ccccc12)C(=O)N[C@@H](CC(C)C)C(=O)N[C@@H](CC(C)C)C(N)=O` (H-GLLKRIKWLL-NH2), the 50% haemolytic concentration (HC50) in data set [1] was 500 µM. Moreover, the MIC in data set [2] came out at 3.2 µM (≈ 3.96 µg/mL); in [3] it was 6.5 µM (≈ 8.05 µg/mL).

On to `CC[C@H](C)[C@H](NC(=O)[C@H](CCCNC(=N)N)NC(=O)[C@H](CCCCN)NC(=O)[C@H](CC(C)C)NC(=O)[C@H](CC(C)C)NC(=O)CN)C(=O)N[C@@H](CCCCN)C(=O)N[C@@H](CC(N)=O)C(=O)N[C@@H](CC(C)C)C(=O)N[C@@H](CC(C)C)C(N)=O` (H-GLLKRIKNLL-NH2), for which, in [1], the HC50 is 79.2 µM. Besides, the MIC in data set [2] came to 10.3 µM (≈ 12 µg/mL); in [3], 18.9 µM (≈ 22 µg/mL).

In the case of `CCCCCCCCCCC(=O)NCC(=O)N[C@@H](CC(C)C)C(=O)N[C@@H](CC(C)C)C(=O)N[C@@H](CCCCN)C(=O)N[C@H](C(=O)N[C@H](C(=O)N[C@@H](CCCCN)C(=O)N[C@@H](CCCCN)C(=O)N[C@@H](CC(C)C)C(=O)N[C@@H](CC(C)C)C(N)=O)[C@@H](C)CC)[C@@H](C)CC` (Undecanoyl-GLLKIIKKLL-NH2), the MIC in [4] is 34.7 µM (≈ 45.3 µg/mL); in data set [5], 8.68 µM (≈ 11.3 µg/mL); in data set [6], more than 174 µM; in [8], 6.08 µM (≈ 7.94 µg/mL); in data set [9], 26 µM (≈ 34 µg/mL). In data set [7], this compound registered an HC50 at 1 h of 38.7 µM.

As to `CC[C@H](C)[C@H](NC(=O)[C@H](CCCCN)NC(=O)[C@@H](NC(=O)[C@H](CCCNC(=N)N)NC(=O)[C@H](CCCCN)NC(=O)[C@H](CC(C)C)NC(=O)[C@H](CC(C)C)NC(=O)CN)[C@@H](C)CC)C(=O)N[C@@H](CC(C)C)C(=O)N[C@@H](CC(C)C)C(N)=O` (H-GLLKRIKILL-NH2), the HC50 in [1] was 81.8 µM. The MIC in [2] is 12 µM (≈ 14 µg/mL); in data set [3], 7.7 µM (≈ 8.97 µg/mL).

Regarding `CC[C@H](C)[C@H](NC(=O)[C@@H](NC(=O)[C@H](CCCCN)NC(=O)[C@H](CC(C)C)NC(=O)[C@H](CC(C)C)NC(=O)CN)C(C)C)C(=O)N[C@@H](CCCCN)C(=O)N[C@H](C(=O)N[C@@H](CC(C)C)C(=O)N[C@@H](CC(C)C)C(N)=O)C(C)C` (H-GLLKVIKVLL-NH2), the HC50 in data set [1] worked out at 190 µM. Also, the MIC in [10] stood at 12.8 µM (≈ 14 µg/mL); in [11] it was 25.6 µM (≈ 28 µg/mL).

As to `CC[C@H](C)[C@H](NC(=O)[C@H](CCCNC(=N)N)NC(=O)[C@H](CCCCN)NC(=O)[C@H](CC(C)C)NC(=O)[C@H](CC(C)C)NC(=O)[C@@H](N)CCCCN)C(=O)N[C@@H](CCCCN)C(=O)N[C@@H](CCCCN)C(=O)N[C@@H](CC(C)C)C(=O)N[C@@H](CC(C)C)C(N)=O` (H-KLLKRIKKLL-NH2), the HC50 in [1] turned out to be 193 µM. Moreover, the MIC stood at 22.4 µM (≈ 28 µg/mL) in [10] and 29.6 µM (≈ 37.1 µg/mL) in data set [11].

For `CC[C@H](C)[C@H](NC(=O)[C@H](CCCNC(=N)N)NC(=O)[C@H](CCCCN)NC(=O)[C@H](CC(C)C)NC(=O)[C@H](CC(C)C)NC(=O)CN)C(=O)N[C@@H](CCCCN)C(=O)N[C@H](C(=O)N[C@@H](CC(C)C)C(=O)N[C@@H](CC(C)C)C(N)=O)C(C)C` (H-GLLKRIKVLL-NH2), in data set [1], the HC50 was 69.5 µM. Further, the MIC in data set [2] and in [3] was 19.1 µM (≈ 22 µg/mL) in each case.
